± gives the standard deviation of the averaged measurements.
Test: TIMS collisional cross section (CCS, N2) of the lipid ion; higher = larger ion cross section
Settings: ionization mode: positive, one isomer drawn
Experimental: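 Lipid extracts of human plasma (NIST SRM 1950), mouse liver and HeLa cells were separated by nanoflow C18 LC (30 min gradient, 60 °C) and analysed by TIMS-PASEF on a timsTOF Pro in positive ion mode. Ion mobility was calibrated with the Agilent tuning mix and converted to collisional cross sections (Mason–Schamp) in N2 drift gas. Lipids were identified by MS/MS (SimLipid) and manual curation. SMILES are LIPID MAPS representative structures for the annotated lipid.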

Compound	TIMS collisional cross section (sample type: HeLa)	TIMS collisional cross section (sample type: plasma)	TIMS collisional cross section (sample type: Liver)
CCCCCCCCCCCCC/C=C/C=C/C(=O)OC[C@@H](O)COP(=O)([O-])OCC[N+](C)(C)C (ion (formula + adduct): [C26H50NO7P+H] 1+)	228.2 Å²	228.1 ± 0.42 Å²	–
CC(C)CCC[C@@H](C)[C@H]1CC[C@H]2C3=CC[C@H]4[C@](C)(C=O)[C@@H](O)CC[C@]4(C)[C@H]3CC[C@]12C (ion (formula + adduct): [C29H48O2+H] 1+)	–	219.5 Å²	–
CC(C)CCC[C@@H](C)[C@H]1CC[C@H]2[C@@H]3C(=O)C=C4C=CCC[C@]4(C)[C@H]3CC[C@]12C [3,5-cholestadien-7-one] (ion (formula + adduct): [C27H42O+H] 1+)	203.63 ± 0.75 Å²	203.1 Å²	–
[C@]12(CC=C3C[C@@H](O)CC[C@]3(C)[C@@]1([H])CC[C@]1(C)[C@@]([H])([C@@](C)([H])CC[C@@H]3O[C@@]3(C)C)CC[C@@]21[H])[H] [24,25-epoxy-cholesterol] (ion (formula + adduct): [C27H44O2+H] 1+)	210.4 Å²	210.5 Å²	209.6 Å²
CC(C)C(=O)C[C@](C)(O)[C@H]1CC[C@H]2[C@@H]3C[C@H](O)[C@H]4C[C@@H](O)CC[C@]4(C)C3=CC[C@@]21C [24-northornasterol A] (ion (formula + adduct): [C26H42O4+H] 1+)	–	207.8 Å²	–
C12CC[C@@]3([H])C(C)(C)[C@@H](O)CC[C@]3(C)C=1CC[C@]1(C)[C@@]([H])([C@@](C)([H])CC/C=C(\C)/C)CC[C@@]21C=O [32-oxolanosterol] (ion (formula + adduct): [C30H48O2+H] 1+)	211.6 Å²	–	–
CCCCCCCCCCCCC/C=C/[C@@H](O)[C@H](CO)NC(=O)CCCCCCCCCCCCCCCCCCCCC [Cer d18:1_22:0@] (ion (formula + adduct): [C40H79NO3+H] 1+)	274.3 Å²	–	274.9 Å²
CCCCCCCCCCCCC/C=C/[C@@H](O)[C@H](CO)NC(=O)CCCCCCCCCCCCCCCCCCCCCC [Cer d18:1_23:0@] (ion (formula + adduct): [C41H81NO3+H] 1+)	276.9 Å²	–	277.5 Å²
CCCCCCCCCCCCC/C=C/[C@@H](O)[C@H](CO)NC(=O)CCCCCCCCCCCCCCCCCCCCCCC [Cer d18:1_24:0@] (ion (formula + adduct): [C42H83NO3+H] 1+)	–	281.1 Å²	281.2 Å²
CCCCCCCC/C=C\CCCCCCCCCCCCCC(=O)N[C@@H](CO)[C@H](O)/C=C/CCCCCCCCCCCCC [Cer d18:1_24:1@] (ion (formula + adduct): [C42H81NO3+H] 1+)	278.2 Å²	280.9 ± 3.8 Å²	283 Å²
CCCCCCCCCCCCC/C=C/[C@@H](O)[C@H](CO)NC(=O)CCCCCCCCCCCCCCCCCCCCCCCC [Cer d18:1_25:0@] (ion (formula + adduct): [C43H85NO3+H] 1+)	–	–	284.1 Å²
CCCCCCCC/C=C\CCCCCCCCCCCCCCCC(=O)N[C@@H](CO)[C@H](O)/C=C/CCCCCCCCCCCCC [Cer d18:1_26:1@] (ion (formula + adduct): [C44H85NO3+H] 1+)	284.9 Å²	–	289.4 Å²
CC(C)CCC[C@@H](C)[C@H]1CC[C@H]2[C@@H]3CC=C4C[C@@H](O)CC[C@]4(C)[C@H]3CC[C@]12C [Cholesterol] (ion (formula + adduct): [C27H46O+H] 1+)	207.1 Å²	–	–
CC(C)(O)CCC(=O)[C@](C)(O)[C@H]1[C@H](O)C[C@@]2(C)[C@@H]3CC=C4[C@@H](C[C@@H](O)[C@@H](O)C4(C)C)[C@]3(C)C(=O)C[C@]12C [Cucurbitacin P] (ion (formula + adduct): [C30H48O7+H] 1+)	–	–	231.3 Å²
CCCCCCCCCCCCCCCC(=O)O[C@@H](CO)COC(=O)CCCCCCCCCCCCC [DG 14:0_16:0_0:0] (ion (formula + adduct): [C33H64O5+NH4] 1+)	252.4 Å²	–	252.7 Å²
CCCCCC/C=C\CCCCCCCC(=O)O[C@@H](CO)COC(=O)CCCCCCCCCCCCC [DG 14:0_16:1_0:0] (ion (formula + adduct): [C33H62O5+NH4] 1+)	248.3 Å²	–	–
CCCCCCCC/C=C\CCCCCCCC(=O)O[C@@H](CO)COC(=O)CCCCCCCCCCCCC [DG 14:0_18:1_0:0] (ion (formula + adduct): [C35H66O5+NH4] 1+)	–	255.9 Å²	–
CCCCC/C=C\C/C=C\CCCCCCCC(=O)O[C@@H](CO)COC(=O)CCCCCCCCCCCCC [DG 14:0_18:2_0:0] (ion (formula + adduct): [C35H64O5+NH4] 1+)	–	–	252 Å²

Compound	TIMS collisional cross section (sample type: HeLa)	TIMS collisional cross section (sample type: plasma)	TIMS collisional cross section (sample type: Liver)
CCCCCCCCCCCCCCCC(=O)OCC(CO)OC(=O)CCCCCCCCCCCCCCC (configuration not stated) [DG 16:0_16:0_0:0] (ion (formula + adduct): [C35H68O5+NH4] 1+)	259 Å²	259 ± 0.42 Å²	258.8 Å²
CCCCCCCCCCCCCCCC(=O)OCC(CO)OC(=O)CCCCCCCCCCCCCCC (configuration not stated) [DG 16:0_16:0_0:0] (ion (formula + adduct): [C35H68O5+Na] 1+)	–	253.8 Å²	–
CCCCCC/C=C\CCCCCCCC(=O)O[C@@H](CO)COC(=O)CCCCCCCCCCCCCCC [DG 16:0_16:1_0:0] (ion (formula + adduct): [C35H66O5+NH4] 1+)	254.9 Å²	257 Å²	254.9 Å²
CCCCCCCCCCCCCCCCC(=O)O[C@@H](CO)COC(=O)CCCCCCCCCCCCCCC [DG 16:0_17:0_0:0] (ion (formula + adduct): [C36H70O5+NH4] 1+)	262.1 ± 0.42 Å²	–	–
CCCCC/C=C\C/C=C\CCCCCCCC(=O)O[C@@H](CO)COC(=O)CCCCCCCCCCCCCCC [DG 16:0_18:2_0:0] (ion (formula + adduct): [C37H68O5+NH4] 1+)	–	–	259.8 Å²
CC/C=C\C/C=C\C/C=C\CCCCCCCC(=O)O[C@@H](CO)COC(=O)CCCCCCCCCCCCCCC [DG 16:0_18:3_0:0] (ion (formula + adduct): [C37H66O5+NH4] 1+)	257.3 Å²	–	257.1 Å²
CCCCC/C=C\C/C=C\C/C=C\CCCCCCC(=O)O[C@@H](CO)COC(=O)CCCCCCCCCCCCCCC [DG 16:0_20:3_0:0] (ion (formula + adduct): [C39H70O5+H] 1+)	–	–	265.1 Å²
CCCCC/C=C\C/C=C\C/C=C\CCCCCCC(=O)O[C@@H](CO)COC(=O)CCCCCCCCCCCCCCC [DG 16:0_20:3_0:0] (ion (formula + adduct): [C39H70O5+NH4] 1+)	264.8 Å²	–	264.9 Å²
CCCCC/C=C\C/C=C\C/C=C\C/C=C\CCCC(=O)O[C@@H](CO)COC(=O)CCCCCCCCCCCCCCC [DG 16:0_20:4_0:0] (ion (formula + adduct): [C39H68O5+H] 1+)	–	–	263.9 Å²
CCCCC/C=C\C/C=C\C/C=C\C/C=C\CCCC(=O)O[C@@H](CO)COC(=O)CCCCCCCCCCCCCCC [DG 16:0_20:4_0:0] (ion (formula + adduct): [C39H68O5+NH4] 1+)	263.4 Å²	263.6 Å²	263.8 Å²
CC/C=C\C/C=C\C/C=C\C/C=C\C/C=C\CCCC(=O)O[C@@H](CO)COC(=O)CCCCCCCCCCCCCCC [DG 16:0_20:5_0:0] (ion (formula + adduct): [C39H66O5+NH4] 1+)	261.5 Å²	–	–
CCCCCCCCCCCCCCCCCCCCCC(=O)O[C@@H](CO)COC(=O)CCCCCCCCCCCCCCC [DG 16:0_22:0_0:0] (ion (formula + adduct): [C41H80O5+NH4] 1+)	279.1 Å²	–	–
CCCCCCCC/C=C\CCCCCCCCCCCC(=O)O[C@@H](CO)COC(=O)CCCCCCCCCCCCCCC [DG 16:0_22:1_0:0] (ion (formula + adduct): [C41H78O5+NH4] 1+)	276.3 Å²	–	–
CCCCC/C=C\C/C=C\C/C=C\C/C=C\CCCCCC(=O)O[C@@H](CO)COC(=O)CCCCCCCCCCCCCCC [DG 16:0_22:4_0:0] (ion (formula + adduct): [C41H72O5+NH4] 1+)	271.2 Å²	–	270.8 Å²
CC/C=C\C/C=C\C/C=C\C/C=C\C/C=C\CCCCCC(=O)O[C@@H](CO)COC(=O)CCCCCCCCCCCCCCC [DG 16:0_22:5_0:0] (ion (formula + adduct): [C41H70O5+NH4] 1+)	266.6 Å²	–	270 Å²
CC/C=C\C/C=C\C/C=C\C/C=C\C/C=C\C/C=C\CCC(=O)O[C@@H](CO)COC(=O)CCCCCCCCCCCCCCC [DG 16:0_22:6_0:0] (ion (formula + adduct): [C41H68O5+NH4] 1+)	–	–	267.7 Å²
CCCCCC/C=C\CCCCCCCC(=O)OC[C@H](CO)OC(=O)CCCCCCC/C=C\CCCCCC [DG 16:1_16:1_0:0] (ion (formula + adduct): [C35H64O5+NH4] 1+)	249 Å²	–	–
CCCCCC/C=C\CCCCCCCC(=O)OC[C@H](CO)OC(=O)CCCCCCC/C=C\CCCCCCCC [DG 16:1_18:1_0:0] (ion (formula + adduct): [C37H68O5+H] 1+)	258.1 Å²	–	–

Reference: the supplement of paper PMC6965134
